According to patent US20220257491A1, “Prebiotic Oral Care Compositions and Methods” (Colgate-Palmolive Company, priority 2021, published 2022):
Several values for one entry are separate records, joined by “and”; a condition that tells them apart may be missing. Equal entries are not always repeated. Marks after values point to notes of the source that are not given here.

Key:
Assay type in all cases: cell-based
A. actinomycetemcomitans = experiment: Multi-species biofilm composition: absolute abundance of A. actinomycetemcomitans; conditions: mean±SD n=3
Description: (§1) Biofilms are grown vertically on Calcium Deficient Hydroxyapatite (CAD-HA) disks (Hitemco Medical, Old Bethpage, USA) using the Amsterdam Active Adhesion model. Biofilms are allowed to establish during 24 h (37° C., 170 rpm) under micro-aerophilic conditions (6% O2, 7% CO2, 7% H2, 80% N2). After this 24 h, disks are rinsed 3 times a day for 3 minutes (RT, 250 rpm), for 3 consecutive days, by transferring the lid containing the disks to a new 24-well plate containing 2 mL/well of the appropriate substrate solution. As a negative control, PBS (pH 5.7) without substrate supplementation is used. After each rinsing step, disks are shortly dip-rinsed in a new 24-well plate containing fresh modified BHI medium (2 mL/well) to remove remaining substrate traces. Subsequently, the lid is transferred to another 24-well plate containing fresh modified BHI medium (2 mL/well), followed by incubation (micro-aerophilic, 37° C., 170 rpm) until the next rinsing step.
(§2) NADM, N-acetyl-D-glucosamine (“NADG”) and D-(+)-mannose are selected to determine their effects on multi-species biofilm composition. […] decrease in absolute numbers in at least four of the pathogenic bacterial species tested in the assay, compared to the control, the results of which are described in Table 1 below. Absolute abundances of bacterial species are shown as mean±SD (n=3) logarithmic values of the genome equivalents per millilitre (log(Geq/mL)).

multi-species biofilms = experiment: Multi-species biofilm organic acid balances (supernatant); conditions: >0 production, <0 consumption, mean±SD n=3
Description: as §1
To examine the effect of NADM and the influence of the orientation and absence/presence of the N-acetyl group on organic acid production and consumption, supernatant samples from substrate-treated or untreated multi-species biofilms are analysed. […] When comparing relevant significant differences between substrate conditions, an increase in acetate production is observed for NADM compared to D-(+)-mannose (3084±174 vs. 1934±56 mg/L).

multi-species biofilm = experiment: Relative multi-species biofilm composition (groups of bacterial species)
Description: as §1, §2
Relative abundances of the different groups (beneficial/commensals, periodontal pathogens, cariogenic pathogens) of bacterial species are shown as mean±SD (n=3) percentage of the genome equivalents per millilitre (% (Geq/mL)). […] NADM: N-acetyl-D-mannosamine; NADG: N-acetyl-D-glucosamine.

[1] = system: A. actinomycetemcomitans virulence genes; experiment: Multi-species biofilm virulence gene expression, SYBR RT-qPCR: A. actinomycetemcomitans; conditions: for Fold Change in virulence gene expression: aae / Fold Change in virulence gene expression: apaH / Fold Change in virulence gene expression: cdtB / Fold Change in virulence gene expression: emaA / Fold Change in virulence gene expression: flp / Fold Change in virulence gene expression: ltxA / Fold Change in virulence gene expression: omp29 / Fold Change in virulence gene expression: omp100 / Fold Change in virulence gene expression: orf859 / Fold Change in virulence gene expression: pgA / Fold Change in virulence gene expression: vapA / Fold Change in virulence gene expression: vppA: relative to control (=1), 2^-ΔΔCt, geometric mean n=3
Description: as §1
The expression of 33 virulence genes from 4 periodontal pathogens is analysed to evaluate the relative virulence of the substrate-treated biofilms. For all three substrates, virulence gene expression is determined relatively to the control, and these values are also compared between substrates when this is relevant (Tables 5a-5d).

[2] = system: human oral keratinocytes (HOK-18A); experiment: Inflammatory mediator gene expression in keratinocytes exposed to substrate-treated biofilms; conditions: relative to control (=1), geometric mean (95% C.I.) n=3
Description: Cultures of immortalized human oral keratinocytes (HOK-18A) are grown. The relative inflammatory potential of the substrate-treated multi-species biofilms is evaluated by analyzing the expression of five inflammatory mediator genes in human oral keratinocytes (HOKs) exposed to the substrate-treated biofilms. […] The IL-8 levels in the cellular supernatant are determined as well. RNA is converted to cDNA and relative expression of inflammatory mediator genes is determined as described above with respect to the cellular housekeeping gene (3-actin.
In HOKs exposed to substrate-treated (substrate concentrations of 1 M) multi-species biofilms, mostly decreases in inflammatory mediator gene expression are observed and measured via SYBR RT-qPCR, the results of which are detailed in Table 6.
All substrates are dissolved in PBS at a concentration of 1 M (upper part) or 1% (w/v) (lower part). Values between 0 and 1 represent relative downregulation, values >1 represent relative upregulation. […] For such values, statistically significant differences between two experimental conditions are marked with ‘#1’ (vs. NADM), ‘#2’ (vs. NADG), ‘#3’ (vs. D-(+)-mannose) (P<0.05).

S. mutans = experiment: Multi-species biofilm composition: absolute abundance of S. mutans; conditions: mean±SD n=3
Description: as §1
(§3) NADM, N-acetyl-D-glucosamine (“NADG”) and D-(+)-mannose are selected to determine their effects on multi-species biofilm composition. Repeated rinsing of the biofilms with the substrates at a concentration of 1M results in a significant decrease in absolute numbers in at least four of the pathogenic bacterial species tested in the assay, compared to the control, the results of which are described in Table 1 below. Absolute abundances of bacterial species are shown as mean±SD (n=3) logarithmic values of the genome equivalents per millilitre (log(Geq/mL)).

A. naeslundii = experiment: Multi-species biofilm composition: absolute abundance of A. naeslundii; conditions: mean±SD n=3
Description: as §1, §3

A. viscosus = experiment: Multi-species biofilm composition: absolute abundance of A. viscosus; conditions: mean±SD n=3
Description: as §1, §2

[3] = substrate 1%(w/v) in PBS, mean±SD n=3
[4] = substrate 1 M in PBS, mean±SD n=3
[5] = biofilm rinsed with substrate 1%
[6] = biofilm rinsed with substrate 1M

`CC(=O)N[C@H]1C(O)O[C@H](CO)[C@@H](O)[C@@H]1O` (stereo partly drawn) [NADG, N-acetyl-D-glucosamine, reference compound] was tested, and the “Absolute abundance Aa (A. actinomycetemcomitans)” value (A. actinomycetemcomitans; substrate 1%(w/v) in PBS) was 9.11 ± 0.20 log(Geq/mL), the “Absolute abundance Aa (A. actinomycetemcomitans)” value (A. actinomycetemcomitans; substrate 1 M in PBS) was 6.6 ± 0.93 log(Geq/mL) and the “acetate level in biofilm supernatant” value (multi-species biofilms; substrate 1%(w/v)) was 379 ± 10 mg/L. The “butyrate level in biofilm supernatant” value (multi-species biofilms; substrate 1%(w/v)) was 2238 ± 59 mg/L, the “formate level in biofilm supernatant” value (multi-species biofilms; substrate 1%(w/v)) was 4315 ± 198 mg/L and the “lactate level in biofilm supernatant” value (multi-species biofilms; substrate 1%(w/v)) was 125 ± 0 mg/L. For the same compound, the “propionate level in biofilm supernatant” value (multi-species biofilms; substrate 1%(w/v)) was 2205 ± 89 mg/L, the “acetate level in biofilm supernatant” value (multi-species biofilms; substrate 1 M) was 3815 ± 77 mg/L and the “butyrate level in biofilm supernatant” value (multi-species biofilms; substrate 1 M) was 1255±51 mg/L and 1255 ± 51*^, #1, 3 mg/L. The “formate level in biofilm supernatant” value (multi-species biofilms; substrate 1 M) was 352 ± 18 mg/L, the “lactate level in biofilm supernatant” value (multi-species biofilms; substrate 1 M) was 125 ± 0 mg/L and the “propionate level in biofilm supernatant” value (multi-species biofilms; substrate 1 M) was 2750 ± 40 mg/L. The “Relative abundance Beneficials/Commensals” value (multi-species biofilm; [3]) was 60.07 ± 8.25 % (Geq/mL), the “Relative abundance Cariogenic Pathogens” value (multi-species biofilm; [3]) was 0.66±0.27 % (Geq/mL) and the “Relative abundance Periodontal Pathogens” value (multi-species biofilm; [3]) was 39.27 ± 7.98 % (Geq/mL). For the same compound, the “Relative abundance Beneficial or commensals” value (multi-species biofilm; [4]) was 97.52±0.82 % (Geq/mL), the “Relative abundance Cariogenic Pathogens” value (multi-species biofilm; [4]) was 2.35 ± 0.92 % (Geq/mL) and the “Relative abundance Periodontal Pathogens” value (multi-species biofilm; [4]) was 0.13±0.10 % (Geq/mL) and 0.13 ± 0.10 *^, #1 % (Geq/mL). The “Decreases in A. actinomycetemcomitans, F. nucleatum, P. gingivalis, P. intermedia and S. sobrinus numbers vs control” value (multi-species biofilm; substrate 1 M, range over the species) was −1.5 to −2.5 log(Geq/mL), the “Fold Change in virulence gene expression: aae” value ([1]; substrate 1% (w/v)) was 1.55 fold and the “Fold Change in virulence gene expression: apaH” value ([1]; substrate 1% (w/v)) was 0.73 fold. For the same compound, the “Fold Change in virulence gene expression: cdtB” value ([1]; substrate 1% (w/v)) was 1.05 fold, the “Fold Change in virulence gene expression: emaA” value ([1]; substrate 1% (w/v)) was 0.68 fold and the “Fold Change in virulence gene expression: flp” value ([1]; substrate 1% (w/v)) was 0.54 fold. For the same compound, the “Fold Change in virulence gene expression: ltxA” value ([1]; substrate 1% (w/v)) was 0.40 fold, the “Fold Change in virulence gene expression: omp29” value ([1]; substrate 1% (w/v)) was 0.77 fold and the “Fold Change in virulence gene expression: omp100” value ([1]; substrate 1% (w/v)) was 0.71 fold. For the same compound, the “Fold Change in virulence gene expression: orf859” value ([1]; substrate 1% (w/v)) was 1.99 fold, the “Fold Change in virulence gene expression: pgA” value ([1]; substrate 1% (w/v)) was 0.72 fold and the “Fold Change in virulence gene expression: vapA” value ([1]; substrate 1% (w/v)) was 0.65 fold. For the same compound, the “Fold Change in virulence gene expression: vppA” value ([1]; substrate 1% (w/v)) was 0.28 fold, the “A. actinomycetemcomitans gene expression decrease: vppA” value ([1]; substrate 1%(w/v)) was 3.6 fold and the “A. actinomycetemcomitans gene expression increase: aae” value ([1]; substrate 1%(w/v)) was 1.5 fold. The “A. actinomycetemcomitans gene expression increase: orf859” value ([1]; substrate 1%(w/v)) was 2 fold, the “Upregulation of A. actinomycetemcomitans expression of flp” value ([1]; substrate 1 M) was 2.4 fold and the “Fold Change in virulence gene expression: aae” value ([1]; substrate 1M) was 0.24 fold. The “Fold Change in virulence gene expression: apaH” value ([1]; substrate 1M) was 0.08 fold, the “Fold Change in virulence gene expression: cdtB” value ([1]; substrate 1M) was 0.04 fold and the “Fold Change in virulence gene expression: emaA” value ([1]; substrate 1M) was 0.29 fold. The “Fold Change in virulence gene expression: flp” value ([1]; substrate 1M) was 2.40 fold, the “Fold Change in virulence gene expression: ltxA” value ([1]; substrate 1M) was 0.01 fold and the “Fold Change in virulence gene expression: omp29” value ([1]; substrate 1M) was 0.19 fold. For the same compound, the “Fold Change in virulence gene expression: omp100” value ([1]; substrate 1M) was 0.03 fold, the “Fold Change in virulence gene expression: orf859” value ([1]; substrate 1M) was 0.13 fold and the “Fold Change in virulence gene expression: pgA” value ([1]; substrate 1M) was 11.60 fold. The “Fold Change in virulence gene expression: vapA” value ([1]; substrate 1M) was 1.00 fold, the “Fold Change in virulence gene expression: vppA” value ([1]; substrate 1M) was 0.49 fold and the “Fold change in inflammatory mediator gene expression: IL-1β” value [2, 5] was 0.71 (0.38-1.33) fold. For the same compound, the “Fold change in inflammatory mediator gene expression: IL-6” value [2, 5] was 0.73 (0.58-0.93) fold, the “Fold change in inflammatory mediator gene expression: IL-8” value [2, 5] was 1.00 (0.78-1.27) fold and the “Fold change in inflammatory mediator gene expression: MMP-8” value [2, 5] was 0.52 (0.17-1.60) fold. For the same compound, the “Fold change in inflammatory mediator gene expression: TNF-α” value [2, 5] was 0.71 (0.28-1.35) fold, the “Fold change in inflammatory mediator gene expression: IL-1β” value [2, 6] was 0.75 (0.55-1.02) fold and the “Fold change in inflammatory mediator gene expression: IL-6” value [2, 6] was 0.57 (0.46-0.71) fold. The “Fold change in inflammatory mediator gene expression: IL-8” value [2, 6] was 0.14 (0.06-0.36)* fold, the “Fold change in inflammatory mediator gene expression: MMP-8” value [2, 6] was 1.28 (0.79-2.08) fold and the “Fold change in inflammatory mediator gene expression: TNF-α” value [2, 6] was 0.89 (0.59-1.34) fold. For the same compound, the “Absolute abundance S. mutans” value (S. mutans; substrate 1%(w/v) in PBS) was 7.83 ± 0.23 log(Geq/mL), the “Absolute abundance S. mutans” value (S. mutans; substrate 1 M in PBS) was 8.95 ± 0.38 log(Geq/mL) and the “Absolute abundance An (A. naeslundii)” value (A. naeslundii; substrate 1%(w/v) in PBS) was 7.71 ± 0.12 log(Geq/mL). For the same compound, the “Absolute abundance An (A. naeslundii)” value (A. naeslundii; substrate 1 M in PBS) was 6.52 ± 0.20 log(Geq/mL), the “Absolute abundance Av (A. viscosus)” value (A. viscosus; substrate 1%(w/v) in PBS) was 7.83 ± 0.31 log(Geq/mL) and the “Absolute abundance Av (A. viscosus)” value (A. viscosus; substrate 1 M in PBS) was 6.92 ± 0.45 log(Geq/mL).
